Results taken from paper PMC6506541, “A Bio-inspired Hypoxia Sensor using HIF1a-Oxygen-Dependent Degradation Domain” (Scientific Reports, 2019).

Tests used:
Assay type in all cases: cell-based, Human
proteasome = experiment: Sensor degradation under proteasome inhibitor MG-132; conditions: MDA-MB 231 cells; MG-132 20 μM or 40 μM, 6 h, after pre-treatment with probe
Description: (§1) Human breast cancer cells MDA-MB 231 were maintained at 37 °C and 5% CO2 in RPMI-1640 (Sigma–Aldrich), supplemented with 10% fetal bovine serum (Fisher Scientific). Cells were seeded at a density of 2·10^5 cells per well in 6-multiwell plates 24 h prior treatment. For hypoxia induction, they were treated with either CoCl2 (Sigma–Aldrich) at a final concentration of 500 μM, or L-Mimosine (Sigma–Aldrich) at a final concentration of 800 μM. Treatment with each peptidic sensor (500 ng/mL) was carried out in the presence of the aforementioned inhibitors. After three hours of incubation, supernatants containing the probes and either CoCl2 or L-Mimosine were aspirated, cells were washed once with PBS 1X and fresh medium, containing again either CoCl2 or L-Mimosine, was added to the cells for an extended incubation of three hours. Treatment with proteasome inhibitor MG-132 (Sigma-Aldrich) was carried out for 6 hours at final concentrations of either 20 μM or 40 μM, upon pre-treatment of the cells with the probes, as described previously. Fluorescent probes internalization was quantified using ImageJ (NIH). Quantified fluorescence was expressed as values of corrected total cell fluorescence (CTCF), which was calculated using the formula CTCF = integrated density – (area of selected cell × mean fluorescence of background readings)[44].

MDA-MB 231 cells = experiment: Sensor stabilization by hypoxia-mimetic agents, fluorescence microscopy; conditions: sensor 500 ng/mL, CoCl2 500 μM or L-Mimosine 800 μM vs vehicle, 3 h incubation, wash, further 3 h
Description: as §1

HA-tagged ubiquitin = experiment: Immunoprecipitation of HA-tagged ubiquitinated sensor; conditions: MDA-MB 231 cells transfected with pcDNA3-Ub-HA; 5 h with sensor; anti-HA immunoprecipitation; IVIS fluorescence
Description: MDA-MB 231 cells were seeded at a density of 2·10^5 cells per well in 6-multiwell plates twenty-four hours prior transfection. Each well was transfected with 2 μg of either pcDNA3-Ub-HA or empty vector pcDNA3 (Invitrogen) using Superfect (Qiagen) as transfection reagent. Twenty-four hours upon transfection culture medium was removed, cells were washed carefully with phosphate buffered saline (PBS; Sigma-Aldrich) and fresh culture medium containing the peptidic sensor 1 was added onto the cells. PBS was used as mock treatment. Five hours upon treatment with the sensor, cells were lysed in native immunoprecipitation buffer, 20 mM Tris·HCl pH 8, 137 mM NaCl,10% glycerol,1% Nonidet P-40 (NP-40), 2 mM EDTA, containing the protease inhibitors sodium orthovanadate (1 mM), PMSF (2 mM) and aprotinin (1 μg/mL) (Sigma-Aldrich). Each immunoprecipitation contained 600 μg of whole protein extract and were incubated overnight with 5 μg of anti-hemagglutinin HA.11 (Clone 16B12) antibody (Abcam) at 4 °C. Equal amounts of rabbit immunoglobulins (Sigma-Aldrich) were used as control. HA-tagged ubiquitins were immunoprecipitated using Protein G-coupled agarose (Santa Cruz), subsequently washed with immunoprecipitation buffer and eluted under native conditions. Fluorescence images were taken using an IVIS Spectrum system (Perkin-Elmer).

Sequence: LDLEMLAPYIPMDDDFQL [compound 1, 5(6)-ROX-labelled HIF-1α ODD domain peptide (Leu557-Leu574) linked to octa-arginine by O2Oc PEG linkers]
- effect of proteasome inhibitor MG-132 on degradation of sensor fluorescent signal (proteasome): dose-dependent effect on proteasome degradation of fluorescent signal
- stabilization of sensor fluorescence (inhibition of sensor degradation) by hypoxia mimetics (MDA-MB 231 cells): stabilized in the presence of both molecules that mimic hypoxia
- ubiquitination of sensor (enrichment by HA immunoprecipitation) (HA-tagged ubiquitin): degradation of the sensor is ubiquitin proteasome-regulated
